Values quoted from earlier work as cited in patent publication US6515198B2, “Use of purinergic receptor modulators and related reagents” (Syntex (U.S.A.) LLC, priority 2000, dated 2003).

System: bladder sensory afferents
Conditions: agents capable of desensitizing P2X3 receptor subunit responses

Row | Compound | effect on the activity of bladder sensory afferents
1 | Cc1ccc(C(=O)Nc2ccc(S(=O)(=O)O)c3cc(S(=O)(=O)O)cc(S(=O)(=O)O)c23)cc1NC(=O)c1cccc(NC(=O)Nc2cccc(C(=O)Nc3cc(C(=O)Nc4ccc(S(=O)(=O)O)c5cc(S(=O)(=O)O)cc(S(=O)(=O)O)c45)ccc3C)c2)c1 [suramin] | decrease the activity of bladder sensory afferents
2 | Nc1ncnc2c1ncn2[C@@H]1O[C@H](COP(=O)(O)CP(=O)(O)OP(=O)(O)O)[C@@H](O)[C@H]1O [αβ-ATP] | decrease the activity of bladder sensory afferents
